Source: US10758609B2, “Cross-reactive T-cell epitopes of HIV, SIV, and FIV for vaccines in humans and cats” (priority 2015, dated 2020)

Columns and labels:
[1] = test system: PBMC from FIV-vaccinated cats; test: Feline IFNγ ELISpot of PBMC from vaccinated cats; type: cell-based, cat; settings: for IFNγ production: cats of Group 1, MAP Vaccine Trial 1 (FIG. 3)
Procedure: (§1) IFNγ and IL2 ELISpot analyses were performed using feline IFNγ ELISpot and feline IL2 ELISpot kits (R&D Systems, Cat# SEL764 and SEL1890) as described. The threshold is defined as ≥50 spot forming units (SFU) per 1×10^6 PBMC when counted with MVS ELISpot Reader (MVS Pacific, LLC). Each result is an average of the duplicate samples after subtraction of the average value of the media controls.
(§2) Concurrently, the overlapping peptide pools of FIV structural/enzyme proteins were used to stimulate PBMC and T cells from FIV-vaccinated cats. These cats were vaccinated with prototype dual-subtype FIV vaccine which was the prototype to our commercial FIV vaccine (Coleman et al., 2014). The feline assays (Example 1) equivalent to those of human assays (Sanou et al., 2013; Roff et al., 2015) were used except for ICS analysis. In place of ICS for cytolysin/cytotoxins, IL2 ELISpot analysis was performed. […] The results for FIV-vaccinated cats included IFNγ and IL2 productions and CD3^+CD4+ and CD3^+CD8^+ T-cell proliferation (Table 9, the second set of results).
(§3) The feline IFNγ and L2 ELISpot analyses of PBMC to FIV MAPs and peptides were performed as previously described (Abbott et al. (2012)) using feline IFNγ modular kit (R&D Systems, Minneapolis, Minn.) and feline IL2 modular kit (R&D Systems). All results shown in the figures (FIGS. 8A-1, 8B-1, 8A-2, 8B-2, 8A-3, 8B-3) are after subtracting the average value of the results from all control cats.
(§4) The second parameter evaluated was the ability of the peripheral blood mononuclear cells (PBMC) from vaccinated and control cats to produce IL2 and interferon-γ (IFNγ) proteins in responses to FIV MAPs and peptides (FIGS. 8A-1, 8A-2, 8A-3, 8B-1, 8B-2, 8B-3) using feline IL2 and IFNγ ELISpot assays (Aranyos et al. (2016); Abbott et al. (2012)). IL2 enhances the proliferation of FIV-specific CD4^+ T cells and CD8^+ T cells. IFNγ is known enhance the FIV-specific CTL activities in vaccinated cats (Abbas et al. (2015)).

[2] = test system: PBMC from FIV-vaccinated cats; test: Feline IL2 ELISpot of PBMC from vaccinated cats; type: cell-based, cat
Procedure: as §1, §2, §3, §4

[3] = test system: feline CD3^+CD4^+ T cells; test: CFSE-based feline CD3+CD4+ T-cell proliferation; design: species or system cat; settings: FIV-vaccinated cats; for CD4, frequency of responders: FIV epitope peptide; for CDC4^+ T (T-cell proliferation), frequency of responders: FIV peptides
Procedure: (§5) Carboxyfluorescein diacetate succinimide ester (CFSE)-proliferation was performed according to the manufacturer's protocol (Invitrogen, Grand Island, N.Y.) and processed using a previously described modification. The modification consisted of 2.5×10^5 CFSE-labeled feline PBMC stimulated for 5 days (37° C., 5% CO2) with 4 μg/mL peptide in culture media (RPMI medium 25 µg/mL gentamycin, and 10% heat-inactivated fetal bovine serum (FBS)). Peptide pools consisted of 3-5 overlapping peptides of 4 μg/mL each. The antibodies used for flow cytometry based proliferation analysis consisted of murine anti-feline (Fe) CD3 monoclonal antibody (MAb clone kindly provided by Drs. Yorihiro Nishimura and Takayuki Miyazawa; described in [32]) combined with secondary goat anti-mouse IgG3-APC/CY7 MAb (SouthernBiotech, Birmingham, Ala.; Cat#1100-19); and murine anti-FeCD4-PE MAb (SouthernBiotech, Cat#8130-09); and murine anti-FeCD8 MAb (MAb clone kindly provided by Dr. Nazareth Gengozian, described in [33]) with secondary goat anti-mouse IgG2a-PE/CY7 (Southern Biotech, Cat#1080-17). The murine anti-B220-APC MAb for detecting feline B cells (SouthernBiotech, Cat#1665-11) and previously described MAbs for CFSE were used for FACS phenotyping. Both FACS phenotyping and CFSE-proliferation analyses were performed with BD LSRII and FACSDiva™ Software (BD Biosciences, San Jose, Calif.). The final value for each sample was derived after subtraction of the average value of the media controls using a positive threshold of ≥1 CFSE^low.
as §2
(§6) Carboxyfluorescein diacetate succinimide ester (CFSE)-proliferation analysis was according to the manufacturer's protocol (Invitrogen-Fisher, Carlsbad, Calif.) and processed as previously described (Roff et al. (2015)) using the following modifications: anti-feline CD3 antibody ((clone NZM1), a generous gift from T. Miyazawa (Univ. of Tokyo, Japan)) in combination with APC-conjugated anti-mouse IgG3 (Southern Biotech, Birmingham, Ala.), PE-conjugated anti-feline CD4 antibody (Southern Biotech), and anti-feline CD8 antibody (gift from N. Gengozian, University of Tennessee (Gengozian et al. (1997))) in combination with PE/Cy7-conjugated anti-mouse IgG2b (Southern Biotech) to detect the proliferation of feline CD3^+CD4+ T cells and feline […]. All results shown in the figures (FIGS. 7A-1, 7B-1, 7A-2, 7B-2, 7A-3, 7B-3) are after subtracting the average value of each results from all control cats. The threshold of CFSE proliferation is ≥0.5 CFSE^low. […]

[4] = test system: feline CD3^+CD8^+ T cells; test: CFSE-based feline CD3+CD8+ T-cell proliferation; design: species or system cat; settings: for CD8, frequency of responders: FIV epitope peptide; for CD8, frequency of responders / CD8^+ T (T-cell proliferation), frequency of responders: FIV-vaccinated cats; for CD8^+ T (T-cell proliferation), frequency of responders: FIV peptides; for % CD8+ T-cell CFSE^low over % CD4+ T-cell CFSE^low ratio (CD8/CD4 response ratio): cats of Group 1, MAP Vaccine Trial 1 (FIG. 3)
Procedure: as §5, §2, §6

[5] = test system: CD4^+ T cells from HIV^+ subjects; settings: HIV-1 peptides; HIV+ human subjects
Procedure: The overlapping peptide pools of FIV and HIV-1 structural and enzyme proteins were used to stimulate the […] (PBMC) and the T cells from HIV^+ subjects as previously described for epitope mapping of HIV-1 and FIV p24 and reverse transcriptase (RT) (Sanou et al., 2013; Roff et al., 2015). The individual peptides in those peptide pools with positive responses to either interferon-γ (IFNγ) production and/or T-cell proliferation were determined with IFNγ ELISpot analysis and CFSE-based CD3^+CD4^+ and CD3^+CD8^+ T-cell proliferation analyses followed by the FACS-based intracellular staining (ICS) for cytolysin (perforin) and cytotoxin (granzyme A [GrzA] and GrzB) (Sanou et al., 2013; Roff et al., 2015). Besides viral p24 and RT proteins, the identical approach was used to identify anti-HIV/FIV T-cell epitopes on viral matrix (MA), nucleocapsid (NC), protease (PR), RNAase, integrase (IN), surface envelope (SU Env), and transmembrane envelope (TM Env) (FIG. 12).
Since our goal is to develop HIV vaccine for human use, the HIV peptides (Table 10) counterpart of the cross-reactive FIV peptides shown in Table 9 were tested with PBMC and T cells from HIV^+ subjects. The immune functions analyzed were human IFNγ production by ELISpot, cytolysin/cytotoxin production by ICS, and CFSE-based proliferation of CD3^+CD4^+ and CD3^+CD8^+ T cells from HIV^+ subjects (Table 10, the first set of results). In addition, the Los Alamos National Laboratories (LANL) database was used to identify the HLA allele(s) of the HIV epitope sequence with CTL activity that can exist within the sequence of the conserved counterpart HIV peptide (Table 9, LANL CTL). The bold HLA class-I supertypes and the bold 2-digit alleles are those on the “Optimal CD8^+ CTL Epitopes” list and those without bold are alleles for potential CTL epitope. […] The HLA class II such as HLA-DRB1 has yet to be fully classified into supertypes, and therefore the 4-digit resolution nomenclatures for the HLA-DRB1 alleles are shown.
The counterpart HIV-1 peptides of the FIV peptides were also tested for immunogenicity using PBMC and T cells from HIV^+ human subjects. […] The HRT7-1 and HRT7-2 were also tested with cells from HIV^+ subjects on ART. The threshold for positive IFNγ ELISpot response is ≥75 spot-forming units (SFU) per 10^6 PBMC. The threshold for CFSE-based CD4^+ (CD4^+ T) and CD8^+ (CD8^+ T) T-cell proliferation is ≥2% CD4^+ T-cell CFSE^low or CD8^+ T-cell CFSE^low. The threshold of intracellular cytokine staining (ICS) of FACS-based cytolysin (perforin) and cytotoxins (granzymes A and B) in CD4^+ T cells (CyCD4) and CD8^+ T cells (CyCD8) is ≥0.2%. […] The nine HIV-1 peptides in black are the counterpart FIV peptides used in the current MAP vaccine trial, whereas the 13 peptides in blue were not.

[6] = FIV epitope peptide, FIV-vaccinated cats
[7] = FIV peptides, FIV-vaccinated cats (prototype dual-subtype vaccine)

NVAVGVGGKSKKF [FMA1]
IFNγ, frequency of responders [1, 6]: ++++ (>54% (++++)) | IFNγ, frequency of responders [1, 7]: ++++ (>54% (++++)) | IL2, frequency of responders ([2]; FIV peptides): — (0%-1.4%(—)) | CD4, frequency of responders [3]: +++ (41%-54% (+++)) | CDC4^+ T (T-cell proliferation), frequency of responders [3]: +++ (40.1%-54% (+++)) | CD8, frequency of responders [4]: ++++ (>54% (++++)) | CD8^+ T (T-cell proliferation), frequency of responders [4]: ++++ (>54% (++++))

CC[C@H](C)[C@H](N)C(=O)N1CCC[C@H]1C(=O)N[C@H](C(=O)NCC(=O)N[C@@H](CCC(=O)O)C(=O)N[C@H](C(=O)N[C@@H](Cc1ccc(O)cc1)C(=O)N[C@@H](CCCCN)C(=O)N[C@@H](CCCNC(=N)N)C(=O)N[C@@H](Cc1c[nH]c2ccccc12)C(=O)N[C@H](C(=O)N[C@H](C(=O)N[C@@H](CC(C)C)C(=O)NCC(=O)O)[C@@H](C)CC)[C@@H](C)CC)[C@@H](C)CC)C(C)C [Hp9-3(10-3)]
CyCD4 (cytolysin and cytotoxin production of CD4+ T cells), frequency of responders [5]: + (12.5%-25% (+))

AEVKLYLKQSLSIANA [Fp14-3/4, overlapping peptide of MAP3]
IFNγ, frequency of responders [1, 7]: +++ (40.1%-54% (+++)) | IFNγ production [1]: 96 SFU/10^6 PBMC | IL2, frequency of responders ([2]; FIV peptides): ++++ (>54% (++++)) | CDC4^+ T (T-cell proliferation), frequency of responders [3]: +++ (40.1%-54% (+++)) | CD8^+ T (T-cell proliferation), frequency of responders [4]: +++ (40.1%-54% (+++)) | % CD8+ T-cell CFSE^low over % CD4+ T-cell CFSE^low ratio (CD8/CD4 response ratio) [4]: 4.8

GRRYVWCSLPQGWVLSPLIY [FRT7-1/2, overlapping peptide of MAP5]
IFNγ, frequency of responders [1, 7]: +++ (40.1%-54% (+++)) | IFNγ production [1]: no IFNγ response | IL2, frequency of responders ([2]; FIV peptides): +++ (40.1%-54% (+++)) | CDC4^+ T (T-cell proliferation), frequency of responders [3]: +++ (40.1%-54% (+++)) | CD8^+ T (T-cell proliferation), frequency of responders [4]: +++ (40.1%-54% (+++)) | % CD8+ T-cell CFSE^low over % CD4+ T-cell CFSE^low ratio (CD8/CD4 response ratio) [4]: 11

KFLLDTGADITILN [FPR2]
IFNγ, frequency of responders [1, 6]: ++++ (>54% (++++)) | IFNγ, frequency of responders [1, 7]: ++++ (>54% (++++)) | IL2, frequency of responders ([2]; FIV epitope peptide): ++++ (>54% (++++)) | IL2, frequency of responders ([2]; FIV peptides): ++++ (>54% (++++)) | CD4, frequency of responders [3]: ++++ (>54% (++++)) | CDC4^+ T (T-cell proliferation), frequency of responders [3]: ++++ (>54% (++++)) | CD8, frequency of responders [4]: ++++ (>54% (++++)) | CD8^+ T (T-cell proliferation), frequency of responders [4]: ++++ (>54% (++++))
